Measured values: publication PMC4550094 (Journal of biomolecular screening, 2013)
Where “and” joins values, the source holds several entries; their conditions need not be identical. Equal entries are not always repeated. Where two headings read alike, the source gives them in different places.

Columns and labels:
[1] = test system: HepG2 cells; assay: LipidTOX Red PLD assay, qHTS, 1536-well high-content imaging; type: cell-based, Human; conditions: for EC50: Homo sapiens; for EC50 / Primary Screen Efficacy: HepG2, 24 h; for PLD induction (result in words): HepG2, primary screen and cherry-pick confirmation; for Primary Screen Efficacy: LOPAC primary qHTS, % of PLD induction by 19.16 µM amiodarone
[2] = test system: HepG2 cells; assay: CellTiter-Glo cell viability assay; type: cell-based, Human; conditions: for Cell Viability Efficacy (maximum inhibition of cell viability) / Cell Viability IC50: HepG2, 24 h treatment, mean ± SD of three experiments; for IC50: Homo sapiens, HepG2, 24 h, read-out: Cell Viability IC50
[3] = test system: I13-35 cells; conditions: read-out: Literature-Reported EC50, cited from earlier work
[4] = test system: HepG2 cells; conditions: cited from earlier work; for EC50: read-out: Literature-Reported EC50
[5] = test system: H4 cells; conditions: cited from earlier work
[6] = test system: Rat brain; conditions: cited from earlier work
[7] = test system: hERG channel; conditions: cited from earlier work
[8] = read-out: Confirmation EC50 (PLD induction)
[9] = read-out: Primary Screen EC50 (PLD induction)

| Compound | EC50 [1, 8] [µM] | EC50 [1, 9] [µM] | Cell Viability Efficacy (maximum inhibition of cell viability) [2] | PLD induction (result in words) [1] | other results |
| --- | --- | --- | --- | --- | --- |
| CC(C(O)c1ccc(O)cc1)N1CCC(Cc2ccccc2)CC1 (centres unmarked) [Ifenprodil] | 12.3 ± 6.7 | 7.9 | 25.5±0.8% | – | IC50 [2]: 21.1 ± 1.7 µM |
| CC[C@]1(O)C[C@@H]2CN(CCc3c([nH]c4ccccc34)[C@@](C(=O)OC)(c3cc4c(cc3OC)N(C)[C@H]3[C@@](O)(C(=O)OC)[C@H](OC(C)=O)[C@]5(CC)C=CCN6CC[C@]43[C@@H]65)C2)C1 [Vinblastine] | 9.5 ± 5.5 | 12.6 | – | – | Cell Viability IC50 [2]: Inactive |
| CC12CC3CC(C)(C1)CC(N)(C3)C2 [Memantine] | 29 ± 1.7 | 12.6 | – | – | EC50 ([3]; I13-35 cells): 93.7 µM |
| CN(C)CCC=C1c2ccccc2C=Cc2ccccc21 [cyclobenzaprine] | – | – | – | identified as novel PLD inducers | – |
| CN1CCC(=C2c3ccccc3C=Cc3ccccc32)CC1 [cyproheptadine] | – | – | – | identified as novel PLD inducers | – |
| CC(C)[C@H]1c2ccc(F)cc2CC[C@@]1(CCN(C)CCCc1nc2ccccc2[nH]1)OC(=O)C1CC1 [NNC 55-0396] | – | – | 106% and 106.3±4.3% | – | Primary Screen Efficacy [1]: 91.6% |
| Cl.Cl.OCCN1CCN(CC/C=C2/c3ccccc3Sc3ccc(C(F)(F)F)cc32)CC1 [cis-(Z)-Flupenthixol] | – | – | 131.7±6.4% | significantly induced PLD formation | Primary Screen Efficacy [1]: 37.3% |
| N=C(N)c1ccc(OCCCCCOc2ccc(C(=N)N)cc2)cc1 [Pentamidine] | 2.8 ± 2.4 | 1.4 | – | – | EC50 [4]: 8.3 µM |
| C[C@@H]1O[C@@H](O[C@H]2C[C@@H](O)[C@]3(CO)[C@H]4[C@H](O)C[C@]5(C)[C@@H](C6=CC(=O)OC6)CC[C@]5(O)[C@@H]4CC[C@]3(O)C2)[C@H](O)[C@H](O)[C@H]1O [Ouabain] | 3 ± 1.8 | 0.4 | 43.6±1.1% | – | Cell Viability Efficacy (maximum inhibition of cell viability) ([2]; listed as ouabain): 42%; IC50 [2]: 0.2 µM |
| COc1cc2nc(N3CCCN(C)CC3)nc(NC3CCN(Cc4ccccc4)CC3)c2cc1OC [BIX 01294] | 1.6 ± 0.4 | 3.5 | 98% and 98.6±3.3% | – | IC50 [2]: 10 ± 1.6 µM |
| CCN(CC)CCCC(C)Nc1ccnc2cc(Cl)ccc12 (centres unmarked) [Chloroquine] | 23.6 | 28.2 | – | – | EC50 [3]: 11.8 µM |
| CN1CCC[C@@H]1CCO[C@](C)(c1ccccc1)c1ccc(Cl)cc1 [clemastine] | – | – | – | significantly induced PLD formation | – |
| COCC(=O)O[C@]1(CCN(C)CCCc2nc3ccccc3[nH]2)CCc2cc(F)ccc2[C@@H]1C(C)C [Mibefradil] | 10.4 ± 3.3 | 4.5 | 97.0±3.3% | – | IC50 [2]: 25.2 ± 4.1 µM |
| CN1C[C@H](CNC(=O)OCc2ccccc2)C[C@@H]2c3cccc4c3c(cn4C)C[C@H]21 [Metergoline] | 5.8 ± 1.3 | 2.5 | 127.9±4.1% | – | IC50 [2]: 62.8 µM |
| CC(=O)N1CCN(c2ccc(OCC3COC(Cn4ccnc4)(c4ccc(Cl)cc4Cl)O3)cc2)CC1 (centres unmarked) [Ketoconazole] | 5.4 ± 2 | 2.8 | – | – | Literature-Reported: Active at (concentration) [4]: Active at 8.3 µM |
| CC(N)Cc1c[nH]c2ccc(OCc3cccs3)cc12 (centres unmarked) [BW 723C86] | – | – | 37.7±11.9% | – | Primary Screen Efficacy [1]: 62.2% |
| CCOC(=O)N1CCC(=C2c3ccc(Cl)cc3CCc3cccnc32)CC1 [Loratadine] | – | – | – | – | Literature-Reported: Active at (concentration) [4]: Active at 16 µM |
| CNCCCN1c2ccccc2CCc2ccccc21 [Desipramine] | 5.1 ± 1.1 | 11.2 | – | – | EC50 ([3]; I13-35 cells): 9.1 µM |
| CN(C)CCC=C1c2ccccc2CCc2ccccc21 [Amitriptyline] | 4.6 ± 0.5 | 10 | – | – | EC50 [4]: 15 µM |
| CC(C)NCC(O)COc1cccc2ccccc12 (racemic) [(±)-Propranolol] | – | – | – | – | Cell Viability IC50 [2]: Inactive |
| CN1CCN(C2=Nc3cc(Cl)ccc3Nc3ccccc32)CC1 [Clozapine] | – | – | – | – | Literature-Reported: Active at (concentration) [4]: Active at 16 µM |
| CN(C)CCCN1c2ccccc2CCc2ccccc21 [Imipramine] | 20.8 ± 6.9 | 10 | – | – | EC50 ([3]; I13-35 cells): 21 µM |
| CN1CCN(CCCN2c3ccccc3Sc3ccc(C(F)(F)F)cc32)CC1 [trifluoperazine] | – | – | – | positive | – |
| CN1CCN(C2Cc3ccccc3Sc3ccc(Cl)cc32)CC1.O=C(O)/C=C\C(=O)O (centres unmarked) [Octoclothepin] | – | – | 121.0±4.9% | – | Primary Screen Efficacy [1]: 135.0% |
| CN(C)CCCC1(c2ccc(F)cc2)OCc2cc(C#N)ccc21 (centres unmarked) [Citalopram] | 27.5 ± 3.1 | 10 | – | – | EC50 ([3]; I13-35 cells): 38 µM |
| NC(N)=NC(=O)c1nc(Cl)c(N2CCCCCC2)nc1N [5-(N,N-hexamethylene) amiloride] | – | – | 40.7±4.9% | – | Primary Screen Efficacy [1]: 52.8% |

| Compound | EC50 [1, 8] [µM] | EC50 [1, 9] [µM] | Cell Viability Efficacy (maximum inhibition of cell viability) [2] | PLD induction (result in words) [1] | other results |
| --- | --- | --- | --- | --- | --- |
| CSc1ccc2c(c1)C(N1CCN(C)CC1)Cc1ccccc1S2 (centres unmarked) [Methiothepin] | – | – | 121.8±9.0% | – | Primary Screen Efficacy [1]: 76.9% |
| COc1ccc2c(c1)c(CCN1CCOCC1)c(C)n2C(=O)c1cccc(Cl)c1Cl [GW405833] | – | – | 70.0±58.7% | – | Primary Screen Efficacy [1]: 49.4% |
| OCCN1CCN(CCCN2c3ccccc3Sc3ccc(C(F)(F)F)cc32)CC1 [fluphenazine] | – | – | – | positive | – |
| CC(CCc1ccccc1)NCC(O)c1ccc(O)c(C(N)=O)c1 (centres unmarked) [Labetalol] | 24.8 ± 4.9 | 12.6 | – | – | – |
| NC12CC3CC(CC(C3)C1)C2 [Amantadine] | 3.9 ± 4.5 | 0.9 | – | – | EC50 ([3]; I13-35 cells): 239 µM |
| C=C[C@H]1C[N@@]2CC[C@H]1C[C@@H]2[C@@H](O)c1ccnc2ccc(OC)cc12 [Quinidine] | 13.4 ± 2 | 15.8 | – | – | EC50 [4]: 25 µM |
| CN(C)C/C=C(/c1ccc(Br)cc1)c1cccnc1 [Zimelidine] | 27.4 ± 1.5 | 14.1 | – | – | EC50 ([3]; I13-35 cells): 30.4 µM |
| CN1CCN(C2=Nc3ccccc3Oc3ccc(Cl)cc32)CC1 [lozapine] | – | – | – | positive | – |
| OCCN1CCN(CCCN2c3ccccc3C=Cc3ccccc32)CC1 [opipramol] | – | – | – | identified as novel PLD inducers | – |
| CN(C)CCCN1c2ccccc2Sc2ccc(Cl)cc21 [Chlorpromazine] | 5.4 ± 1.9 | 10 | – | – | EC50 ([3]; I13-35 cells): 4.1 µM |
| CN(C)CC/C=C1/c2ccccc2Sc2ccc(Cl)cc21 [chlorprothixene] | – | – | – | significantly induced PLD formation | – |
| OC(CN1CCC(Cc2ccc(F)cc2)CC1)c1ccc(Cl)cc1 (centres unmarked) [Eliprodil] | 9 ± 5 | 10 | 24.6±2.1% | – | IC50 [2]: 26.5 ± 2.2 µM |
| Fc1ccc([C@@H]2CCNC[C@H]2COc2ccc3c(c2)OCO3)cc1 [Paroxetine] | 3 ± 0.7 | 5.6 | – | induce PLD | Literature-Reported: Active at (concentration) [5]: Active at 5 µM |
| COc1ccccc1N1CCN(CCCCN2C(=O)c3ccccc3C2=O)CC1 [NAN-190] | 2 ± 0.3 | 2.2 | – | significantly induced PLD formation | Cell Viability IC50 [2]: Inactive |
| CCN(CC)CCCC(C)Nc1c2ccc(Cl)cc2nc2ccc(OC)cc12 (centres unmarked) [Quinacrine] | 1 ± 0.2 | 5 | – | induce PLD | Literature-Reported: Active at (dose) [6]: Active at 60 mg/kg |
| CN(C)CCC=C1c2ccccc2COc2ccccc21 [Doxepin] | – | – | – | – | Literature-Reported: Active at (concentration) [4]: Active at 25 µM |
| CC(C)(C)c1ccc(C(=O)CCCN2CCC(OC(c3ccccc3)c3ccccc3)CC2)cc1 [Ebastine] | – | – | – | significantly induced PLD formation | HERG channel block [7]: blocking |
| CN(C)CCCN1c2ccccc2Sc2ccccc21 [Promazine] | 5.7 ± 1.9 | 22.4 | – | – | EC50 ([3]; I13-35 cells): 5.3 µM |
| COc1cc2nc(N3CCN(C(=O)OCc4ccccc4)[C@H](C(=O)NC(C)(C)C)C3)nc(N)c2cc1OC [L-765,314] | – | – | 115.2±0.3% | – | Primary Screen Efficacy [1]: 54.1% |
| aminobenzotropine | – | – | – | significantly induced PLD formation | – |
| COc1ccccc1N1CCN(CCN(C(=O)c2ccc(F)cc2)c2ccccn2)CC1 [p-MPPF] | – | – | – | significantly induced PLD formation | – |
| CC(CN1c2ccccc2Sc2ccccc21)N(C)C (centres unmarked) [promethazine] | – | – | – | positive | – |
| CN1CCN(c2nc3cc(C(F)(F)F)ccc3n3cccc23)CC1 [CGS-12066A] | – | – | 56.7±13.3% | – | Primary Screen Efficacy [1]: 103.7% |
| Cc1c2ccncc2c(C)c2c1[nH]c1ccccc12 [Ellipticine] | 9 ± 3.3 | 5 | 102.3±4.0% | – | IC50 [2]: 29.8 ± 2.4 µM |
| CC(C)(C)[C@]1(O)CCN2C[C@H]3c4ccccc4CCc4cccc(c43)[C@@H]2C1 [(+)-Butaclamol] | – | – | 47.2±18.3% | – | IC50 [2]: 47.8 ± 32.2 µM |
| COc1ccc(NC(=O)c2ccc(-c3ccc(-c4noc(C)n4)cc3C)cc2)cc1N1CCN(C)CC1 [GR 127935] | 0.8 | 6.3 | 106.7±13.6% | significantly induced PLD formation | IC50 [2]: 42.6 ± 10.3 µM |
